Bridges are numbered along the chain shown (N, C = ends). Where no end group is shown, it is not given here.
Tested on: HCCs of TGFα/c-myc mice
Assay: Tumour penetration assessment with Evans blue
Type: in vivo, mouse
Settings: 4 μmol/kg peptide i.v.; Evans blue 33 mg/kg i.v. 24 h later; photometric quantification; n = 11 tumours from four animals
Method: Homozygous metallothionein/TGFα and albumin/c-myc single transgenic mice in CD13B6CBA background were crossed to generate the male TGFα/c-myc bitransgenic mice, as previously described. Hepatocarcinogenesis was accelerated by giving the mice ZnCl2 (via the drinking water) to induce the expression of TGFα. The animals were inspected every 2 to 3 days. To detect and monitor the endogenously formed HCCs in the TGFα/c-myc mice, gadoxetic acid (Gd-EOB-DTPA)-enhanced MRI was performed on a 3T MRI scanner (Siemens Magnetom Trio, Siemens Medical Solutions) as described recently. Mice with HCC as identified by Gd-EOB-DTPA-enhanced MRI were used in the subsequent experiments.
TGFα/c-myc mice with confirmed liver tumours according to Gd-EOB-DTPA […]-enhanced MRI or nude mice with HepG2 tumours received iRGD/CEND-1 or RGD control peptide (4 μmol/kg each), or PBS by tail vein injection. […] Another 30 min later, the mice were terminally perfused with Ringer solution by cannulation of the left heart ventricle. Organs were inspected macroscopically following laparotomy, and the liver, tumour and other organs were excised. Evans blue was extracted from tissues in N,N-dimethylformamide for 24 h at 37 °C and quantified spectrophotometrically (Beckman Coulter DU 800, Beckman Coulter, Brea, CA, USA) at 600 nm.

CRGDDGPKC (disulfide 1-9 (inferred)) [RGD control peptide, RGD control peptide (…)]
increase in Evans blue in the tumour tissue: no effect
